# According to PubChem BioAssay (NCI):
#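 Tested at 5 concentrations; 48 h exposure; 96-well plates; endpoints linearly interpolated, else capped at highest concentration. The concentration for 50% growth inhibition is given as GI50. The concentration for full growth arrest is given as TGI.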
# Tests used:
# Assay in all cases: NCI-60 cell line screen, 48 h
# A498 renal = tested on: A498 renal
# SK-OV-3 ovarian = tested on: SK-OV-3 ovarian
# MALME-3M melanoma = tested on: MALME-3M melanoma
# SK-MEL-28 melanoma = tested on: SK-MEL-28 melanoma
# HT29 colon = tested on: HT29 colon
# UACC-257 melanoma = tested on: UACC-257 melanoma
# OVCAR-8 ovarian = tested on: OVCAR-8 ovarian
# RXF 393 renal = tested on: RXF 393 renal
# A549 NSCLC = tested on: A549 NSCLC
# RPMI-8226 leukemia = tested on: RPMI-8226 leukemia
# KM12 colon = tested on: KM12 colon
# EKVX NSCLC = tested on: EKVX NSCLC
# CCRF-CEM leukemia = tested on: CCRF-CEM leukemia
# OVCAR-5 ovarian = tested on: OVCAR-5 ovarian
# M14 melanoma = tested on: M14 melanoma
# SNB-19 CNS = tested on: SNB-19 CNS
# TK-10 renal = tested on: TK-10 renal
# NCI-H23 lung = tested on: NCI-H23 lung
# OVCAR-4 ovarian = tested on: OVCAR-4 ovarian
# ACHN renal = tested on: ACHN renal
# UO-31 renal = tested on: UO-31 renal
# SR leukemia = tested on: SR leukemia
# COLO 205 colon = tested on: COLO 205 colon
# HCT-116 colon = tested on: HCT-116 colon
# DU-145 prostate = tested on: DU-145 prostate
# MCF7 breast = tested on: MCF7 breast
# MOLT-4 leukemia = tested on: MOLT-4 leukemia
# SK-MEL-5 melanoma = tested on: SK-MEL-5 melanoma
# HCT-15 colon = tested on: HCT-15 colon
# HOP-62 NSCLC = tested on: HOP-62 NSCLC
# SF-295 CNS = tested on: SF-295 CNS
# PC-3 prostate = tested on: PC-3 prostate
# SN12C renal = tested on: SN12C renal
# LOX IMVI melanoma = tested on: LOX IMVI melanoma
# MDA-MB-231 breast = tested on: MDA-MB-231 breast
# IGROV1 ovarian = tested on: IGROV1 ovarian
# K-562 leukemia = tested on: K-562 leukemia
# UACC-62 melanoma = tested on: UACC-62 melanoma
# T-47D breast = tested on: T-47D breast
# HOP-92 NSCLC = tested on: HOP-92 NSCLC
# SF-268 CNS = tested on: SF-268 CNS
# SNB-75 CNS = tested on: SNB-75 CNS
# CAKI-1 renal = tested on: CAKI-1 renal
# NCI-H460 lung = tested on: NCI-H460 lung
# HS 578T breast = tested on: HS 578T breast
# NCI/ADR-RES ovarian = tested on: NCI/ADR-RES ovarian
# SK-MEL-2 melanoma = tested on: SK-MEL-2 melanoma
# HL-60(TB) leukemia = tested on: HL-60(TB) leukemia
# BT-549 breast = tested on: BT-549 breast
# HCC-2998 colon = tested on: HCC-2998 colon
# U251 CNS = tested on: U251 CNS
# 786-0 renal = tested on: 786-0 renal
# NCI-H522 lung = tested on: NCI-H522 lung
# SW-620 colon = tested on: SW-620 colon
structure (smiles),measurement,setting,value
COc1cc(OC)c(/C=C/S(=O)(=O)Cc2ccc(OC)c(NCC(=O)NO)c2)c(OC)c1,GI50,A498 renal,< 10 nM
same,TGI,A498 renal,101 nM
same,GI50,SK-OV-3 ovarian,69.7 nM
same,TGI,SK-OV-3 ovarian,> 100 µM
same,GI50,MALME-3M melanoma,> 100 µM
same,TGI,MALME-3M melanoma,> 100 µM
same,GI50,SK-MEL-28 melanoma,> 23.7 µM
same,TGI,SK-MEL-28 melanoma,> 100 µM
same,GI50,HT29 colon,36.8 nM
same,TGI,HT29 colon,4.84 µM
same,GI50,UACC-257 melanoma,> 100 µM
same,TGI,UACC-257 melanoma,> 100 µM
same,GI50,OVCAR-8 ovarian,35.6 nM
same,TGI,OVCAR-8 ovarian,> 100 µM
same,GI50,RXF 393 renal,< 11 nM
same,TGI,RXF 393 renal,> 100 µM
same,GI50,A549 NSCLC,36.4 nM
same,TGI,A549 NSCLC,> 100 µM
same,GI50,RPMI-8226 leukemia,45 nM
same,TGI,RPMI-8226 leukemia,> 100 µM
same,GI50,KM12 colon,10.5 nM
same,TGI,KM12 colon,> 100 µM
same,GI50,EKVX NSCLC,58 nM
same,TGI,EKVX NSCLC,> 100 µM
same,GI50,CCRF-CEM leukemia,41 nM
same,TGI,CCRF-CEM leukemia,> 100 µM
same,GI50,OVCAR-5 ovarian,53.5 nM
same,TGI,OVCAR-5 ovarian,> 100 µM
same,GI50,M14 melanoma,22 nM
same,TGI,M14 melanoma,> 100 µM
same,GI50,SNB-19 CNS,43.4 nM
same,TGI,SNB-19 CNS,> 100 µM
same,GI50,TK-10 renal,> 100 µM
same,TGI,TK-10 renal,> 100 µM
same,GI50,NCI-H23 lung,41.4 nM
same,TGI,NCI-H23 lung,> 100 µM
same,GI50,OVCAR-4 ovarian,46.1 µM
same,TGI,OVCAR-4 ovarian,> 100 µM
same,GI50,ACHN renal,< 15.2 nM
same,TGI,ACHN renal,> 100 µM
same,GI50,UO-31 renal,72.3 nM
same,TGI,UO-31 renal,> 100 µM
same,GI50,SR leukemia,< 10.4 nM
same,TGI,SR leukemia,> 100 µM
same,GI50,COLO 205 colon,31.6 nM
same,TGI,COLO 205 colon,119 nM
same,GI50,HCT-116 colon,19.8 nM
same,GI50,DU-145 prostate,39.5 nM
same,TGI,DU-145 prostate,> 100 µM
same,GI50,MCF7 breast,14.2 nM
same,TGI,MCF7 breast,> 100 µM
same,GI50,MOLT-4 leukemia,41.5 nM
same,TGI,MOLT-4 leukemia,> 100 µM
same,GI50,SK-MEL-5 melanoma,18.5 nM
same,TGI,SK-MEL-5 melanoma,182 nM
same,GI50,HCT-15 colon,13.1 nM
same,TGI,HCT-15 colon,> 100 µM
same,GI50,HOP-62 NSCLC,47.2 nM
same,TGI,HOP-62 NSCLC,> 100 µM
same,GI50,SF-295 CNS,< 10 nM
same,TGI,SF-295 CNS,> 100 µM
same,GI50,PC-3 prostate,28.5 nM
same,TGI,PC-3 prostate,> 100 µM
same,GI50,SN12C renal,55.5 nM
same,TGI,SN12C renal,> 100 µM
same,GI50,LOX IMVI melanoma,< 10 nM
same,TGI,LOX IMVI melanoma,> 100 µM
same,GI50,MDA-MB-231 breast,45.7 nM
same,TGI,MDA-MB-231 breast,> 100 µM
same,GI50,IGROV1 ovarian,24.1 nM
same,TGI,IGROV1 ovarian,> 100 µM
same,GI50,K-562 leukemia,< 10 nM
same,TGI,K-562 leukemia,> 100 µM
same,GI50,UACC-62 melanoma,< 10 nM
same,TGI,UACC-62 melanoma,> 100 µM
same,GI50,T-47D breast,17.8 µM
same,TGI,T-47D breast,> 100 µM
same,GI50,HOP-92 NSCLC,77.7 nM
same,TGI,HOP-92 NSCLC,> 100 µM
same,GI50,SF-268 CNS,86.3 nM
same,TGI,SF-268 CNS,> 100 µM
same,GI50,SNB-75 CNS,< 10 nM
same,TGI,SNB-75 CNS,72.6 nM
same,GI50,CAKI-1 renal,< 10 nM
same,TGI,CAKI-1 renal,> 100 µM
same,GI50,NCI-H460 lung,25.6 nM
same,TGI,NCI-H460 lung,> 100 µM
same,GI50,HS 578T breast,< 14.2 nM
same,TGI,HS 578T breast,> 100 µM
same,GI50,NCI/ADR-RES ovarian,< 10 nM
same,TGI,NCI/ADR-RES ovarian,> 100 µM
same,GI50,SK-MEL-2 melanoma,> 100 µM
same,TGI,SK-MEL-2 melanoma,> 100 µM
same,GI50,HL-60(TB) leukemia,19.1 nM
same,TGI,HL-60(TB) leukemia,59.3 nM
same,GI50,BT-549 breast,22.1 nM
same,GI50,HCC-2998 colon,34.6 nM
same,TGI,HCC-2998 colon,> 100 µM
same,GI50,U251 CNS,35.5 nM
same,TGI,U251 CNS,> 100 µM
same,GI50,786-0 renal,40.9 nM
same,TGI,786-0 renal,> 100 µM
same,GI50,NCI-H522 lung,< 10 nM
same,GI50,SW-620 colon,27.9 nM
same,TGI,SW-620 colon,> 100 µM
